Assay results from patent US7816345B2, “Phosphorus-containing prodrugs” (Metabasis Therapeutics, Inc., priority 1999, dated 2010).
Each block holds one compound with its values, some of them ahead of it.

Experiments:
[1] = tested on: rat hepatocytes; experiment: Activation in isolated rat hepatocytes, intracellular triphosphate generation (Examples G, H); format: cell-based; conditions: 250 μM, two hours of incubation
Method: (§1) Methods: Hepatocytes were prepared from fed, dexamethasone-induced Sprague-Dawley rats (300 g) according to the procedure of Berry and Friend (Berry, M. N., Friend, D. S. J. Cell Biol. 43, 506-520 (1969)) as modified by Groen (Groen, A. K. et al. Eur J. Biochem 122, 87-93 (1982)). Hepatocytes (62 mg wet weight/ml) were incubated in 2 ml Krebs bicarbonate buffer containing 10 mM glucose, and 1 mg/ml BSA. Incubations were carried out in a 95% oxygen, 5% carbon dioxide atmosphere in closed, 50-ml Falcon tubes submerged in a rapidly shaking water bath (37° C.). 3.1 and 3.2 were dissolved in methanol to yield 25 mM stock solutions, and then diluted into the cell suspension to yield a final concentration of 250 μM. Two hours following administration, aliquots of the cell suspension were removed and spun through a silicon/mineral oil layer into 10% perchloric acid. […] Detection was by uv absorbance at 254 nm. Peak areas were quantified by comparison of peak areas to authentic standards spiked into naive hepatocyte extracts.
Methods: 3.2 and acyclovir were evaluated in isolated rat hepatocytes at 250 μM as described in Example G.

[2] = tested on: P450 isozymes (CYP3A4, CYP1A2, CYP2C9) in human microsomal protein; conditions: 0-100 μM inhibitor, 250 μM prodrug, 37° C.
Method: Prodrugs are evaluated for human microsome-catalyzed conversion to MPO2—(NHR^6−) in the absence and presence of specific inhibitors of three major P450 isozymes: ketoconazole (CYP3A4), furafylline (CYP1A2), and sulfaphenazole CYP2C9).
Methods: Reactions (0.5 ml @37° C.) consist of 0.2 M KH2PO4, 13 mM glucose-6-phosphate, 2.2 mM NADP+, 1 unit of glucose-6-phosphate dehydrogenase, 0-2.5 mg/ml human microsomal protein (In Vitro Technologies, Inc.), 250 μM prodrug, and 0-100 μM P450 isozyme inhibitor. Reactions are stopped by addition of methanol to a concentration of 60%, and filtered ([…] filter). MPO2—(NHR^6−) is quantified by standard reverse phase, ion-pairing, or ion exchange HPLC methods. Eluted peaks are quantified relative to authentic standards of known concentration.

[3] = tested on: hepatocytes isolated from rats in which CYP3A4 expression was induced; experiment: Activation in hepatocytes from dexamethasone-induced rats (Example J); format: cell-based, rat; conditions: two hours of incubation
Method: as §1, with “acid. The cell extracts in the acid layers were neutralized by the addition of 0.3 volumes of 3M KOH/3M KHCO3, and the extract was then centrifuged, filtered (0.2 micron) and loaded onto an anion exchange HPLC column equilibrated with 70% A (10 mM ammonium phosphate pH 3.5, 6% ETOH) and 30% B (1 M ammonium phosphate pH 3.5, 6% ETOH).” for “acid.”, “extracts. […]” for “extracts.”

[4] = Chemical stability in potassium phosphate buffers (Example A); format: physicochemical; conditions: pH 7.0 potassium phosphate buffer, room temperature, 12-hour incubation
Method: Methods: Aliquots of a 10 μg/mL solution of Compound 1.3 in potassium phosphate buffers at pH 3 and 7 (room temperature) were sampled hourly for 12 hours. Samples were analyzed by reverse phase HPLC with use of a Beckman Ultrasphere C8 column (4.6×250 mm). The column was equilibrated and eluted with a gradient from 50 mM sodium phosphate pH 5.5 to 80% acetonitrile at a flow rate of 1.0 mL/min. Detection was at 254 nm. Under these conditions, Compound 1.3 was separated from 2-Amino-5-isobutyl-4-[2-(5-phosphonomonoamide)furanyl]thiazole, and from 2-Amino-5-isobutyl-4-(2-furanyl)thiazole (retention times=17, 15.8, and 15.6 min., respectively).

[5] = target: T1, human recombinant CYP3A4 (Homo sapiens, UniProt P08684); experiment: Activation by recombinant CYP3A4 (Example F); format: in vitro ADME; conditions: microsomes from baculovirus-infected insect cells co-expressing CYP3A4 and cytochrome p450 reductase
T1 construct: purchased Panvera Corp., Madison, Wis; host or cells: baculovirus-infected insect cells (microsomes)
Method: Activation of 1.3 was evaluated in reactions containing microsomes from baculovirus-infected insect cells co-expressing human recombinant CYP3A4 and cytochrome p450 reductase (Panvera Corp., Madison, Wis.).
Methods: Reaction mixture composition was similar to that described in Example D. Reactions were terminated by addition of methanol to a final concentration of 60% and products were analyzed by HPLC as described in Example A.

[6] = tested on: glucose production in isolated rat hepatocytes; experiment: Inhibition of glucose production in rat hepatocytes (Example I); format: cell-based; conditions: for IC50: lactate/pyruvate as substrates, 1 hour
Method: Methods: Isolated rat hepatocytes were prepared from fasted Sprague Dawley rats (250-300 g) as described in Example G. Hepatocytes (75 mg wet weight/ml) were incubated in 1 ml Krebs bicarbonate buffer containing 10 mM glucose, and 1 mg/ml BSA. Incubations were carried out in a 95% oxygen, 5% carbon dioxide atmosphere in closed, 50-ml Falcon tubes submerged in a rapidly shaking water bath (37° C.). After 10 minutes of equilibration, lactate and pyruvate were added to 10 mM and 1 mM concentrations, respectively. Addition of these gluconeogenic substrates was immediately followed by the addition of test compound to concentrations ranging from 1-100 μM. After 1 hour, an aliquot (0.25 ml) was removed, and transferred to an Eppendorf tube and centrifuged. The resulting supernatant (50 μl) was then assayed for glucose content using a Glucose Oxidase kit (Sigma Chemical Co.) as per the manufacturer's instructions.

[7] = target: T2, FBPase (Homo sapiens, UniProt P09467); experiment: FBPase inhibition in vitro; format: biochemical
T2 sequence (P09467 1-338): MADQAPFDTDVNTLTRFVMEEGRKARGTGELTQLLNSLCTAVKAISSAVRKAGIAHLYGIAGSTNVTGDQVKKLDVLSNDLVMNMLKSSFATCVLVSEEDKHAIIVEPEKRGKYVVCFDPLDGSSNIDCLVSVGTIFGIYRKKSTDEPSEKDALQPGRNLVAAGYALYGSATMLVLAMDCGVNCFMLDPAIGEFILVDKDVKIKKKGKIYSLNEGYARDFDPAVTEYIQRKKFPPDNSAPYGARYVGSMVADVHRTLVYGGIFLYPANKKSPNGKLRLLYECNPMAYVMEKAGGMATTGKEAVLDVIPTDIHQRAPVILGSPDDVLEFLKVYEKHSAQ

[8] = tested on: rat embryos in culture; conditions: cited from earlier work
[9] = tested on: mouse; experiment: Byproduct toxicity testing in vivo (Example N)
Method: Plasma samples are subjected to a standard chemistry panel in which markers of liver function are evaluated.

T1 sequence (P08684 2-503): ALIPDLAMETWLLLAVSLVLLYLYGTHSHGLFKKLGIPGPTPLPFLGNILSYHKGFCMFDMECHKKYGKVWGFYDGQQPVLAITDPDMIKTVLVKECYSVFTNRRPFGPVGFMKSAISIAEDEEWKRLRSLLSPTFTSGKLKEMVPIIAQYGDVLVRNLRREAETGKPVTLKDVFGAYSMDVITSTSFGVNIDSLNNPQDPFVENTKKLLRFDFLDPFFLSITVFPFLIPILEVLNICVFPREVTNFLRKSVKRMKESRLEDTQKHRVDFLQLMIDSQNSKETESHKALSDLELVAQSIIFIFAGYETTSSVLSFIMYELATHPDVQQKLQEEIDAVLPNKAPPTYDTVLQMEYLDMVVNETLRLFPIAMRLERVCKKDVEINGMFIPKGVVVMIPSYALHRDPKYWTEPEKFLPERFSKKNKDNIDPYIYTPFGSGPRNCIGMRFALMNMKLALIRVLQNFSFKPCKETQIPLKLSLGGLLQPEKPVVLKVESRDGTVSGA

SMILES: Nc1ncnc2c1ncn2[C@@H]1O[C@H](COP2(=O)NC(c3ccccc3)CCO2)[C@@H](O)[C@@H]1O (stereo partly drawn) [Compound 3.1, 5′-O-(2-oxo-4-Phenyl-1,3,2-oxazaphosphorin-2-yl)-9-β-D-arabinofuranosyl-adenine]
Intracellular concentration of nucleoside triphosphate (AraATP from 3.1, acyclovir-triphosphate from 3.2) [1]: 15.7 ± 16 nmol/g

SMILES: Cc1nc2c([nH]1)c(=O)n(C)c(=O)n2Cc1ccco1 [furafylline]
inhibition of formation of MPO2—(NHR^6−) from prodrug [2]: no significant inhibition

inhibition of formation of MPO2—(NHR^6−) from prodrug [2]: no significant inhibition
SMILES: Nc1ccc(S(=O)(=O)Nc2ccnn2-c2ccccc2)cc1 [sulfaphenazole]

SMILES: CSc1sc(N)nc1-c1ccc(P2(=O)OC(c3ccccc3)CCN2C)o1 (centres unmarked) [Compound 1.7, 2-Amino-5-methylthio-4-{2-[5-(N-methyl-1-phenyl-1,3-propyl)phosphoramido]furanyl}thiazole]
levels of 2-Amino-5-methylthio-4-[2-(5 phosphono)furanyl]thiazole formed [3]: 20.5 ± 3 nmol/g

stability [4]: fully stable
rate of generation of 2-Amino-5-isobutyl-4-[2-(5-phosphonomonoamide)furanyl]thiazole [5]: 4.2 nmoles/min./nmole CYP3A4
inhibition of FBPase in vitro [7]: not an inhibitor
SMILES: CC(C)Cc1sc(N)nc1-c1ccc(P2(=O)NCCC(c3ccccc3)O2)o1 (centres unmarked) [Compound 1.3, 2-Amino-5-isobutyl-4-{2-[5-(1-phenyl-1,3-propyl)phosphoramido]furanyl}thiazole]
IC50 [6]: 8.5 µM
lower potency relative to 2-Amino-5-isobutyl-4-(2-furanyl)thiazole ([6]; ratio of IC50's for glucose production): ~3 fold

SMILES: C=CC(=O)c1ccccc1 [Phenyl vinyl ketone]
teratogenic activity [8]: lacks teratogenic activity

SMILES: CC(C)Cc1sc(N)nc1-c1ccco1 [2-Amino-5-isobutyl-4-(2-furanyl)thiazole]
IC50 ([6]; Rattus norvegicus, Hepatocyte): 2.5 µM

SMILES: CC(=O)Nc1ccc(O)cc1 [Acetaminophen]
reduction of hepatic glutathione ([9]; 50, 250 and 500 mg/kg): dose-dependent reduction
depletion of hepatic glutathione ([9]; highest dose): > 80%

SMILES: CC(=O)N1CCN(c2ccc(OCC3COC(Cn4ccnc4)(c4ccc(Cl)cc4Cl)O3)cc2)CC1 (centres unmarked) [Ketoconazole]
inhibition of formation of MPO2—(NHR^6−) from prodrug [2]: inhibits the formation of MPO2—(NHR^6−) in a dose-dependent fashion
